Laboratory results: patent publication EP0663826B1, “AMINO ACIDS CONTAINING PARENTERAL FORMULATIONS FOR THE TREATMENT OF HYPOTENSION AND RELATED PATHOLOGIES” (BOARD OF REGENTS THE UNIVERSITY OF TEXAS SYSTEM, priority 1991, dated 1993)

What was measured:
[1] = system: hypotension associated with the administration of TNF in the dog; assay: TNF-induced hypotension in the dog; type: in vivo, dogs
Method: Recombinant human TNF, specific activity 2 x 10^7 units/mg, was from the Dainippon Chemical Corporation, Tokyo, Japan. TNF was administered at a dose of 10 µg//kg in a volume of 10 ml of phosphate buffered saline containing 17 mg/ml of dog albumin. […] Arginine was obtained from Sigma Chemical Company, St. Louis, Mo.
Four conditioned mongrel dogs, 2 males and 2 females, weighing 28 to 30 kg, were studied. Care of the animals were in accordance with the recommendations of the American Association for Accreditation of Laboratory Animals [DHEW(DHHS) publication no. (NIH) 78-23, revised, 1978]. On the day of the experiment, the dogs were fasted overnight. They were anesthetized with phenobarbital (25 mg/kg). The animals were then intubated orally with a #10 fr. endotracheal tube and ventilated with a Harvard pump ventilator at a rate of 14 breaths per minute and a tidal volume of 15 ml/kg. An arterial line was percutaneously placed in the femoral artery on the day of the experiment.
Mean (electronic) and phasic systemic arterial pressures (SAP) were continuously recorded on a Hewlett-Packard recording system (model 7758B) using strain gauge manometers (Hewlett-Packard model 1290A) which were connected to the arterial line. Heart rate (HR) was determined from an EKG tracing and continuously recorded on the Hewlett-Packard recording system. Oxyhemoglobin saturation (SaO2) was obtained using a pulse oximeter (BIOX 111, Boulder, CO). Continuous time-series records of SAP, HR, and SaO2 were obtained using a Lab Master analog-to-digital convertor (16 channel, 12 bit, 30 kHz; Scientific Solutions, Inc.) sampling at 55 Hz and storing the 6 sec averages on a magnetic disk.

[2] = system: endotoxin-induced shock in dogs; assay: Endotoxin-induced hypotension in dogs (with nitroglycerin and control dogs); type: in vivo
Method: Animals: Studies were carried out on 12 conditioned mongrel dogs (9 males and 3 females) weighing 22-32 kg (avg=25.3 kg). Animal care was in accordance with the recommendations of the American Association for Accreditation of Laboratory Animal Care, and met all standards prescribed by the Guide for the Care and Use of Laboratory Animals (Guide for the Care and Use of Laboratory Animals (1978) Dept. of Health, Education and Welfare, Washington, D.C. (Publ. No. 78-23). Animal protocols were approved by The University of Texas Animal Welfare committee. The dogs were fasted overnight prior to the day of experimentation. They were anesthetized with sodium pentobarbital (25 mg/kg i.v.). Dogs were then endotracheally intubated and ventilated with a piston-driven respirator (Harvard instruments) using room air at a tidal volume of 15 ml/kg and at a rate of 12 to 14 breaths per minute, adjusted to achieve a normal arterial pH and pCO2 (Instrumentation Laboratories lL1302 pH/Blood Gas Analyzer). Catheters were placed percutaneously into the femoral and pulmonary arteries; In the latter, a flow-directed thermal-dilation catheter was used (Abbott Critical Care Systems).
Physiologic measurements: Mean SAP and heart rate were continuously monitored (Parametron 7048 Monitoring System, Roche) and stored on a magnetic disk using an analog-to-digital converter (Scientific Solutions, Inc.). Cardiac output (CO) was determined as the mean of six measurements by thermal-dilution. Systemic vascular resistance was calculated as (SAP X80)/CO and expressed as dynes-sec/cm^5 (kg/s·cm^4).
Protocol: After the blood pressure and heart rate stabilized, endotoxin (40 µg/kg, in 10 ml of phosphate-buffered saline (PBS), pH 7.4) was infused i.v. over 2 minutes. This dose of endotoxin typically induces severe and often lethal cardiovascular collapse in the dog. Blood pressure was monitored, and when either SAP fell below 60 mm Hg or a stable nadir in systemic arterial pressure (SAP) was maintained for 10 minutes, L-NMA was administered (20 mg/kg in 5 ml of PBS i.v. over 1 min.). In most experiments, L-arginine (400 mg/kg in 20 ml PBS) was administered ten minutes later by i.v. infusion over 2 minutes. In control experiments, dogs without prior exposure to endotoxin received L-NMA alone. To simulate the hypotension observed in dogs receiving endotoxin, one group of dogs received a continuous i.v. infusion of nitroglycerin (2 mg/ml) at a rate adjusted to maintain the SAP at 60-70 mm Hg. Nitroglycerin-treated dogs then received L-NMA (20 mg/kg) and 20 minutes later L-arginine was administered ([…]).
Statistics: Statistical significance was evaluated using Student's test and either a one-tailed or two-tailed analysis as appropriate for comparisons.

[3] = system: Actinomycin D-Treated L929 Cells; assay: Cytolytic activity of rh-TNF against L929 cells; type: cell-based, murine; settings: for TNF Activity: without NMMA 594.5
Method: TNF bioactivity was measured by the cytotoxicity towards murine L929 cells, in vitro. […]

[4] = system: ^51Cr-labeled Raji Target cells; assay: IL-2 mediated lymphokine activated killer cell activity in vitro; type: cell-based, human

CNC(=N)NCCC[C@H](N)C(=O)O [NMMA, N^ω-methyl-L-arginine]
duration of NMMA-induced bradycardia ([1]; NMMA alone to untreated dogs (n=3)): 31 min
blood pressure increase ([1]; NMMA alone to untreated dogs (n=3), within 2 minutes after infusion): 12 mm Hg
blood pressure increase ([1]; NMMA in dogs infused with nitroglycerin 28 µg/kg/minute IV): 14 mm
increase in blood pressure after administration of NMMA ([1]; dog with severe TNF hypotension, 4.4 mg NMMA/kg, Figure 4a): 80 mm Hg
time to pressor effect of NMMA ([1]; dogs made hypotensive with TNF): ≤ 2 min
time SAP maintained greater than 100 mm Hg by second dose of L-NMA ([2]; Figure 6 dog, endotoxin): 2 h
time blood pressure was maintained by the first dose of L-NMA ([2]; Figure 6 dog, endotoxin): 48 min
increase in SAP ([2]; Figure 6 dog, endotoxin hypotension 47 mm Hg, L-NMA 20 mg/kg, within 10 min): 73 mm Hg
Cardiac Output ([2]; Study 1: Endotoxin-treated dogs (n=4), means ± S.E., same sequence, baseline 2.99 ± 0.32): 2.03 ± 0.32 L/min
Heart Rate ([2]; Study 1: Endotoxin-treated dogs (n=4), means ± S.E., same sequence, baseline 119.5 ± 6.0): 123.3 ± 4.8 beats/min
Systemic Vascular Resistance ([2]; Study 1: Endotoxin-treated dogs (n=4), means ± S.E., same sequence, baseline 3565 ± 454): 4462 ± 552 dynes-sec/cm^5
Systemic Arterial Pressure ([2]; Study 1: Endotoxin-treated dogs (n=4), means ± S.E., sequence endotoxin 40 µg/kg, L-NMA 20 mg/kg, 10 min later L-arginine 400 mg/kg (measured 2 min later), baseline 128.3 ± 9.4): 107.3 ± 9.6 mmHg
Systemic Vascular Resistance ([2]; Study 1: Endotoxin-treated dogs (n=4), means ± S.E., value in brackets): 4.462 ± 0.552 Kg/s·cm^4
Cardiac Output ([2]; Study 2: Nitroglycerin-treated dogs (n=3), means ± S.E., baseline 3.14 ± 0.21): 3.85 ± 0.80 L/min
Heart Rate ([2]; Study 2: Nitroglycerin-treated dogs (n=3), means ± S.E., baseline 143.7 ± 12.1): 191.7 ± 35.0 beats/min
Systemic Vascular Resistance ([2]; Study 2: Nitroglycerin-treated dogs (n=3), means ± S.E., baseline 3294 ± 74): 1858 ± 399 dynes-sec/cm^5
Systemic Arterial Pressure ([2]; Study 2: Nitroglycerin-treated dogs (n=3), means ± S.E., continuous nitroglycerin (2 mg/ml) titrated to SAP 65 mm Hg, then L-NMA 20 mg/kg, then L-arginine, baseline 129.3 ± 10.2): 81.8 ± 3.5 mmHg
Systemic Vascular Resistance ([2]; Study 2: Nitroglycerin-treated dogs (n=3), value in brackets): 1.858 ± 0.399 Kg/s·cm^4
increase in SAP ([2]; control dogs not treated with endotoxin, L-NMA alone): 24.8 ± 2.7 mm Hg
Systemic Arterial Pressure ([2]; control dogs without endotoxin (n=4), means±S.E., L-NMA, baseline 129.0±10.9): 153.8±11.4 mm Hg
Cardiac Output ([2]; control dogs without endotoxin (n=4), means±S.E., baseline 3.54±0.68): 2.12 ± 0.26 L/min
Heart Rate ([2]; control dogs without endotoxin (n=4), means±S.E., baseline 121±17.9): 82.5±6.1 beats/min
Systemic Vascular Resistance ([2]; control dogs without endotoxin (n=4), means±S.E., baseline 3115±347): 5967±523 dynes-sec/cm^5
Systemic Vascular Resistance ([2]; control dogs without endotoxin (n=4), value in brackets): 5.967±0.523 Kg/cm^4·s
change in blood pressure ([2]; dogs with blood pressure reduced to 65 mm Hg by continuous i.v. nitroglycerin, L-NMA 20mg/kg): 17.1±5.0 mm Hg
duration normal blood pressure maintained ([2]; endotoxin-treated dog, additional dose of L-NMA (20 mg/kg) when blood pressure began to decrease): at least 2 hours
duration normal blood pressure restored ([2]; endotoxin-treated dog, single i.v. dose of L-NMA (20 mg/kg)): 30 to 60 min
HR and CO ([2]; endotoxin-treated dogs, L-NMA 20 mg/kg): unchanged
time to reversal of hypotension by L-NMA ([2]; endotoxin-treated dogs, L-NMA 20 mg/kg iv): ≤ 1.5 min
increase in SAP ([2]; endotoxin-treated dogs, L-NMA 20 mg/kg, p<0.01): 47.8 ± 6.8 mm Hg
decrease in cardiac output (Δ) ([2]; two of the four control dogs, L-NMA): ≥ 1.5 L/min
TNF Activity ([3]; [NMMA] 0.125 mM): 536.9 Units/ml
TNF Activity ([3]; [NMMA] 0.250 mM): 538.2 Units/ml
TNF Activity ([3]; [NMMA] 0.500 mM): 562.4 Units/ml
TNF Activity ([3]; [NMMA] 1.0 mM): 415.7 Units/ml
effect on the cytolytic effect of TNF towards tumor cells in vitro ([3]; murine L929 cells): did not alter
% Target Cell Lysis ([4]; [NMMA] 2.0 mM, same effector cells, without NMMA 66.1 ± 9.5): 75.1 ± 4.1%
effect on the proliferation phase or the lytic phase of human LAK cells exposed to IL-2 ([4]; in vitro): did not alter
